# Results taken from US20080227813A1, “Pharmaceutical compositions and methods for treating diseases associated with neurodegeneration” (priority 2006, published 2008).
# What was measured:
# Beagle dogs = assay: 14-day repeated dose oral toxicity study in Beagle dogs; assay type: in vivo; conditions: dog, 210 mg/kg/day oral, 14 days
# Method: The control animals were treated in the same way with placebo gelatin capsules.
# The checks of mortality were done twice daily. The clinical observations were performed at least twice daily and the weighing of non-consumed food was done daily. The body weights of the animals were measured once a week. The hematological, clinical chemical and ECG investigations, urinalysis and the opthalmological examinations were performed prior to the treatment and at the end of the treatment period. Terminally gross necropsy and histopathological examinations were performed according to the study plan.
# patients with ALS = conditions: high dose
# Method: A clinical trial was conducted to assess the safety and tolerability of Compound I, at three dosages (75, 150, and 300 mg/day) as compared with placebo over 12 weeks of treatment in 80 patients with ALS. It was also conducted to determine the pharmacokinetic characterization of Compound I in serum, as well as cerebrospinal fluid (CSF) penetration, in a subset of the 80 patients participating in the study. This information was correlated with safety measures.
# Methodology: This study was a multicenter, double-blind, placebo-controlled study of outpatients with ALS. Eighty subjects at 8-10 centers were enrolled. Subjects received placebo, 25 mg tid, 50 mg tid or 100 mg tid Compound I daily. All 80 subjects received treatment to determine safety and tolerability after 12 weeks of daily treatment. Follow-up visits occurred at 2, 4, 6, 8, 10, 12, and 16 weeks. A subset of participants were admitted to the General Clinical Research Center (GCRC), clinical research center or other department for serum pharmacokinetic studies at Baseline and Week 4, with additional trough serum sampling at Weeks 2, 8, and 12. Cerebrospinal fluid (CSF) penetration was only be evaluated at Week 4.
# [1] = dog, in vivo
smiles,measurement,setting,value
"[O-][n+]1cccc(/C(Cl)=N/OC[C@H](O)CN2CCCCC2)c1 [Compound I, N-[2-hydroxy-3-(1-piperidinyl)-propoxy]-pyridine-1-oxide-3-carboximidoyl chloride]",ECG or ophthalmological alterations,Beagle dogs,no direct treatment related ECG or opthalmological alterations
same,clinical signs,Beagle dogs,"decreased activity, tremor, ptosis, salivation, increased muscle tone, vomiting and thin feces"
same,liver histopathology,Beagle dogs,moderate degree proliferation of cells belonging to the mononuclear phagocyte system (MPS) of the liver
same,mortality,Beagle dogs,no death occurred
same,effect on ALSFRS-R,"patients with ALS; patients also treated with riluzole, not statistically significant",may improve ALSFRS-R
same,effect on average ALSFRS-R score,patients with ALS; patients not treated with riluzole,no effect
same,major elimination route,[1],eliminated with urine
same,AUC of radioactivity relative to parent compound,[1]; iv,about 8 times
same,central volume of distribution Vc,"[1]; iv, 6.45 mg/kg",1.50 ± 0.5 L/kg
same,first apparent elimination half-life,"[1]; iv, 6.45 mg/kg",19.8 ± 30.6 min
same,second apparent elimination half-life,"[1]; iv, 6.45 mg/kg",1.26 ± 0.20 h
same,mean AUC of radioactivity relative to parent compound,[1]; po,about 10 times
same,peak concentration of radioactivity relative to Compound I,[1]; po,1.7 times
same,radioactivity concentration at two weeks,[1]; po,0.014±0.004 μgE/ml
same,"serum radioactivity at 12 h, share of peak",[1]; po,about 15%
same,absorption half-life,"[1]; po, 6.45 mg/kg",22.8 min
same,oral bioavailability,"[1]; po, 6.45 mg/kg",77%
same,oral bioavailability of total radioactivity,"[1]; po, 6.45 mg/kg",104%
same,peak concentration,"[1]; po, 6.45 mg/kg",0.94 ± 0.37 µg/mL
same,start of absorption after dosing,"[1]; po, 6.45 mg/kg",15 to 120 min
same,time of peak concentration,"[1]; po, 6.45 mg/kg",1 to 2 h
